Measured values taken from patent US20230321067A1, “DOSING REGIMEN COMPRISING 3-(1-OXOISOINDOLIN-2-YL)PIPERIDINE-2,6-DIONE DERIVATIVES” (Novartis AG, priority 2020, published 2023).
Like-named read-outs stand apart in the source and are kept apart here.

Legend:
[1] = test system: IFNγ production in Teff cells; test: IFNγ production in Teff cells (FIG. 2D); type: cell-based; details: 2.5 nM, 25 nM and 2.5 μM vs DMSO
[2] = biological target: T1, IKZF4 (Homo sapiens, UniProt Q96SW2+Q9H2S9); test: IKZF4 degradation in vitro (FIG. 1); type: cell-based; details: relative to IKZF2
T1 construct: prolabel (ProLabel enzyme-fragment tag); expressed in transfected cells; host or cells: HEK293T
T1 sequence (Q9H2S9 whole entry, the tested form may be a part): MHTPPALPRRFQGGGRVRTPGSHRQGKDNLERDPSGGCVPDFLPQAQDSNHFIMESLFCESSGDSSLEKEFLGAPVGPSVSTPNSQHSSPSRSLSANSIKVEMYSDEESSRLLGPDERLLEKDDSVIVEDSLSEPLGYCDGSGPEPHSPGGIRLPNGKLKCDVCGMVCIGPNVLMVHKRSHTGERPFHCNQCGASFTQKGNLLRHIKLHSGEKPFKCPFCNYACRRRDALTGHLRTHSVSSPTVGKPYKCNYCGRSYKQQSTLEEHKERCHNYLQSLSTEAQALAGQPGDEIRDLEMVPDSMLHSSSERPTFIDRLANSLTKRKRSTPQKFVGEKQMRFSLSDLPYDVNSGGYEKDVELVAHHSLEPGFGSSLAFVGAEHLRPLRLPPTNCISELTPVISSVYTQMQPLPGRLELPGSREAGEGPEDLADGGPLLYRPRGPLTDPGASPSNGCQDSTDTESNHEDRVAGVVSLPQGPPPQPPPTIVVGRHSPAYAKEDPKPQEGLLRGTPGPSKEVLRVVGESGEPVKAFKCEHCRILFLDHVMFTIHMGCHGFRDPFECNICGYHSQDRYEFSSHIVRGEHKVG
T1 sequence (Q96SW2 whole entry, the tested form may be a part): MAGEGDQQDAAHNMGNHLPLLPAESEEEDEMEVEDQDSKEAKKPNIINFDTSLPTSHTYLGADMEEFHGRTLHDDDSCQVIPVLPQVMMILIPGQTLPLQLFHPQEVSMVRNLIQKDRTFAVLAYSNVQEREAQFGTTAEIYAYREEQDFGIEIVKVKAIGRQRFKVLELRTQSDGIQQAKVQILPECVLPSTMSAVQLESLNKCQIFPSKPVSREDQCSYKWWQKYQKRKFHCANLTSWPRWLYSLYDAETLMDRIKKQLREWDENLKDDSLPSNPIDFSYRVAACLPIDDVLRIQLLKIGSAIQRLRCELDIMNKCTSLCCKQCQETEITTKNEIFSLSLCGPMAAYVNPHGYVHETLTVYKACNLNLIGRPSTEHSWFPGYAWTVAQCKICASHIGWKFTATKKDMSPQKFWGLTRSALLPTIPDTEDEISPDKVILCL
T1 sequence (Q16531 whole entry partner, the tested form may be a part): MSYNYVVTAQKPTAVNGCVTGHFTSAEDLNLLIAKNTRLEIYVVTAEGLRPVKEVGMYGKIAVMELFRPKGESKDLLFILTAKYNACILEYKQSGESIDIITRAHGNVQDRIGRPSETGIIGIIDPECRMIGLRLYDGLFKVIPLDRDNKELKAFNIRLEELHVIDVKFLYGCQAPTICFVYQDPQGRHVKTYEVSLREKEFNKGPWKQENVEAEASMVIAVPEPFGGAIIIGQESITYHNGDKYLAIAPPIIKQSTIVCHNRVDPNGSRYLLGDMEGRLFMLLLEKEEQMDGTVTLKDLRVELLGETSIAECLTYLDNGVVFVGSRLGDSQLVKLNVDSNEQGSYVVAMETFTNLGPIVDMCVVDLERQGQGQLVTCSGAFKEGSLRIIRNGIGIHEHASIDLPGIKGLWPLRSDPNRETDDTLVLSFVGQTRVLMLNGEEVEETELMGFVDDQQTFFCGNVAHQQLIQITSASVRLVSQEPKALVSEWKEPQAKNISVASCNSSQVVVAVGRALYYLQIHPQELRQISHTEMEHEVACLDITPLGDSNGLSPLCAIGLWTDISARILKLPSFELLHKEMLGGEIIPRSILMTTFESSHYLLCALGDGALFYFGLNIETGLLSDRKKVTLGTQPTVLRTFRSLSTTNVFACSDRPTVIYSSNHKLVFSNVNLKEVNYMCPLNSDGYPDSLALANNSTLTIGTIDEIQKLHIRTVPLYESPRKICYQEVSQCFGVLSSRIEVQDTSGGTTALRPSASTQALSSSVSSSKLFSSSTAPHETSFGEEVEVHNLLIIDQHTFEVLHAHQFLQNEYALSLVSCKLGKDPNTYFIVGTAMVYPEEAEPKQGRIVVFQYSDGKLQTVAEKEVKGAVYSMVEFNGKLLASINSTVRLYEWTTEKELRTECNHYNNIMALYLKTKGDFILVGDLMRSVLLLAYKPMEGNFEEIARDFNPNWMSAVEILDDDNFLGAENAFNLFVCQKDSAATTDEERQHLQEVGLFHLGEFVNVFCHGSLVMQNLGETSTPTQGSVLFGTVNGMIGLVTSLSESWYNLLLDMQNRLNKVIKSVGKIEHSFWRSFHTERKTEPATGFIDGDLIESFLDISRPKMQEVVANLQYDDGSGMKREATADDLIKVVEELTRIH
From the text: (§1) Although the specific transcriptional targets of IKZF2 remain to be defined, IKZF2 binds to and represses transcription from the IL-2 promoter region (Baine 2013). […] Finally, an in vitro assay recapitulating hallmarks of T cell dysfunction/exhaustion, by sequential TCR stimulation of isolated primary human T cells, was used to test the hypothesis that […] would rescue the exhausted phenotype and enhance Teff cell activity. […] In addition to IKZF1, other known cereblon substrates including translation termination factor G1 to S phase transition 1 (GSPT1) are not degraded by I-57 (FIG. 1).

[3] = test system: isolated primary human T cells; test: In vitro T cell dysfunction/exhaustion assay (sequential TCR stimulation); type: cell-based
From the text: as §1

[4] = test system: IKZF2; test: Single oral dose PD in cynomolgus monkey: IKZF2 expression in T cells from PBMCs by flow cytometry; type: in vivo
Method: The PK/PD relationship of I-57 was examined in cynomolgus monkeys after a single oral dose of 0.01, 0.1 or 1 mg/kg. I-57 plasma concentration and IKZF2 expression (as determined by flow cytometry) in FOXP3+ T cells from PBMCs were determined (FIG. 4 and FIG. 5).
Decreased (percentage change) IKZF2 positive […] cells, as determined by flow cytometry, were detectable at 4h post dose in the 1 mg/kg and 0.1 mg/kg groups, reaching maximum at 12-24 hrs post-dose and maintaining this maximum for 12-24 hrs.

[5] = Repeated daily oral dose PK in cynomolgus monkey; type: in vivo; details: unbound; for Cmax / AUC(0-t): plasma, po; for AUC(0-t): read-out: AUC0-24
Method: (§2) The PK/PD relationship of I-57 was further examined in cynomolgus monkeys after repeated daily oral doses of 0.1 and 3 mg/kg. In this study, a cohort of animals were initially immunized with an antigen-adjuvant mixture (KLH/Squalene). The experiment was designed to assess the effect of I-57 exposure, and the resulting IKZF2 degradation, on immune response during immunization to test the hypothesis that IKZF2 degradation would result in increased proliferation of stimulated T-cells. In the experiment, daily I-57 oral treatment was initiated 5 days after immunization. An immunization booster dose was administered on day 15. I-57 plasma concentration and IKZF2 expression (as determined by flow cytometry) in FOXP3+ T cells from PBMCs were determined (FIG. 9A and FIG. 9B).

[6] = test system: IKZF2; test: Repeated daily oral dose PD in cynomolgus monkey: IKZF2 in FOXP3+ T cells by flow cytometry; type: in vivo
Method: as §2
Consistent with previous findings, IKZF2 degradation was detected 24 h after the first dose (at day 6) (FIG. 9A and FIG. 9B). The levels of IKZF2 decreased further upon repeat dosing and reached a steady-state level approximately 72 h after initiation of treatment. This level of degradation was maintained throughout the remainder of the treatment (24 days).

[7] = test system: plasma protein; test: Plasma protein binding in vitro, dog; type: in vitro ADME
From the text: (§3) The binding to plasma protein of I-57 in vitro was moderate in all species, with an observed difference between rodents (73% in mouse, 76% in rat) and non-rodents (52% in dog and monkey, 54% in human). Blood-to-plasma ratios were in the range of 0.7-1.8 (human 1.1-1.3). […] Based on results with non-radiolabeled I-57 in the dog, a significant amount of unchanged I-57 was renally eliminated (˜20% of dose).

[8] = test system: plasma protein; test: Plasma protein binding in vitro, monkey; type: in vitro ADME
From the text: as §3

[9] = Blood-to-plasma ratio, human; type: in vitro ADME
From the text: as §3

[10] = biological target: P-gp (Homo sapiens, UniProt P08183); test: P-gp substrate assessment; type: in vitro ADME
Sequence of P-gp (P08183 whole entry): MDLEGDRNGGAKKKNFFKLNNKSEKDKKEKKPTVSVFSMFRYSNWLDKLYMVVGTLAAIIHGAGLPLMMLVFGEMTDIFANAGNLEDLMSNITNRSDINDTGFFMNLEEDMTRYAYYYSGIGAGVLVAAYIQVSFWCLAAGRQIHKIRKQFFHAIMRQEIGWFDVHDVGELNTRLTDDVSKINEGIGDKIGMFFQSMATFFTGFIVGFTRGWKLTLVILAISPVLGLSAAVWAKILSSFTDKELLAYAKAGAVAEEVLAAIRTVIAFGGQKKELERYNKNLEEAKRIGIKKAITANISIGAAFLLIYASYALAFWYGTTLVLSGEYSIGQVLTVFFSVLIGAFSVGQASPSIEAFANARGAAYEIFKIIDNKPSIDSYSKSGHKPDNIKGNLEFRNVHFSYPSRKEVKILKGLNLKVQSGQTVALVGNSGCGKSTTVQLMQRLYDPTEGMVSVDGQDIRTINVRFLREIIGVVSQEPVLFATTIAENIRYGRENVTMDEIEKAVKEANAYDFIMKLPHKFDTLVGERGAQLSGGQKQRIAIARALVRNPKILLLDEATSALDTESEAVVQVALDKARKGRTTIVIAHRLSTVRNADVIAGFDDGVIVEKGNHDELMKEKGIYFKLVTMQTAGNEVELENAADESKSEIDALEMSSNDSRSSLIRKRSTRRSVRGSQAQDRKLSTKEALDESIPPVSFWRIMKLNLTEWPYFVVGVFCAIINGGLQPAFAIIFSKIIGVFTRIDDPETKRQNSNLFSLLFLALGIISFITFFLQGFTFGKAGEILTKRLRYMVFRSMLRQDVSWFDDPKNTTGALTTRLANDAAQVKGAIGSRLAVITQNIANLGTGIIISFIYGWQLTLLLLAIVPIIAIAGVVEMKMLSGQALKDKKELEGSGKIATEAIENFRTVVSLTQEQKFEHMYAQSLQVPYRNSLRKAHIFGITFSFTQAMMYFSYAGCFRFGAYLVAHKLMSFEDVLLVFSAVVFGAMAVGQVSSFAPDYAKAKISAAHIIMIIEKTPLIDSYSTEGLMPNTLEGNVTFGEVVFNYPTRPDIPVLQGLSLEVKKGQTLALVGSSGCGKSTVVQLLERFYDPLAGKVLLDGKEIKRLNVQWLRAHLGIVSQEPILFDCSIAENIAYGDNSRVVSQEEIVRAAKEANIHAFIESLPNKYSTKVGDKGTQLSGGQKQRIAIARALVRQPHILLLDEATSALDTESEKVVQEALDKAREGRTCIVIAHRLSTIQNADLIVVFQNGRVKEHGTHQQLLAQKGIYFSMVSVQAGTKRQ

[11] = biological target: CYP1A2 (Homo sapiens, UniProt P05177); test: CYP inhibition: CYP1A2; type: in vitro ADME; details: I-57 concentrations of up to 100 μM
Sequence of CYP1A2 (P05177 whole entry): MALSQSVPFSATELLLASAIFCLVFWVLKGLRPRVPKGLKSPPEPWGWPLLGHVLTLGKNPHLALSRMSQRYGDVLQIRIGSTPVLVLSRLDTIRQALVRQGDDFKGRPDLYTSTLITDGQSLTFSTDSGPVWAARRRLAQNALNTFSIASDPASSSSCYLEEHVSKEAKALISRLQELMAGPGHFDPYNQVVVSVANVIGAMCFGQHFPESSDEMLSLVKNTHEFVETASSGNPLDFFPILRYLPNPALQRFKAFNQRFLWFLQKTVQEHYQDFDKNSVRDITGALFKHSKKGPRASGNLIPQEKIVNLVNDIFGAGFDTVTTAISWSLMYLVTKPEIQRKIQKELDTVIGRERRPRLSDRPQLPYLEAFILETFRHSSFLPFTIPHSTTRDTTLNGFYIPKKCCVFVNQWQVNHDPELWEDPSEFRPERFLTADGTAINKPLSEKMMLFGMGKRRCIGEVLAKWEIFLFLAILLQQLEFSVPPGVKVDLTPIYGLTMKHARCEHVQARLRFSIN

[12] = biological target: CYP2C8 (Homo sapiens, UniProt P10632); test: CYP inhibition: CYP2C8; type: in vitro ADME; details: I-57 concentrations of up to 100 μM
Sequence of CYP2C8 (P10632 whole entry): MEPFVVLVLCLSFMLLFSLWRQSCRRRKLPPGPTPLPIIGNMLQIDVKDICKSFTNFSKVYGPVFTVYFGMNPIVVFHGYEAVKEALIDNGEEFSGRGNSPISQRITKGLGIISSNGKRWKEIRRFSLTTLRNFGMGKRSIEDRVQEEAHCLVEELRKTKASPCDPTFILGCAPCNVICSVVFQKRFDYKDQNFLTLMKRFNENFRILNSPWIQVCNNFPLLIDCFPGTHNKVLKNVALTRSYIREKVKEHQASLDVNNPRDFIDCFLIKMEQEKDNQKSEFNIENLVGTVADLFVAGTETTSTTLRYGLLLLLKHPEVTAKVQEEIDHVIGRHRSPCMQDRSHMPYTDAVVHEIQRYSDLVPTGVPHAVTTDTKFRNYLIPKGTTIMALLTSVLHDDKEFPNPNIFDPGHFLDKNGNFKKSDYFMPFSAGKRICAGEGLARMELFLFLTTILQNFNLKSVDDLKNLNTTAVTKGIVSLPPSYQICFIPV

[13] = Toxicology studies: CNS and respiratory signs; type: in vivo
From the text: The non-clinical safety profile of I-57 was established in vitro, and in vivo in rats and cynomolgus monkeys in studies up to 4-weeks duration. Based on the outcome of these studies, QTc interval prolongation was identified as the principal safety signal for I-57. There were other toxicities such as diarrhea and vomiting in monkeys, and mortality, clinical signs and target organ toxicities in rats; however, these occurred at exposures far above those expected to result in clinical activity.

[14] = biological target: IKZF2 (Homo sapiens, UniProt Q96SW2+Q9UKS7); test: Degradation of prolabel-tagged IKZF2 in HEK293T cells (FIG. 1); type: cell-based; design: prolabel (ProLabel enzyme-fragment tag); expressed in transfected cells; host or cells: HEK293T; details: HEK293T cells overexpressing prolabel-tagged target proteins, various concentrations
Sequence of IKZF2 (Homo sapiens, UniProt Q96SW2+Q9UKS7) (Q9UKS7 whole entry, the tested form may be a part): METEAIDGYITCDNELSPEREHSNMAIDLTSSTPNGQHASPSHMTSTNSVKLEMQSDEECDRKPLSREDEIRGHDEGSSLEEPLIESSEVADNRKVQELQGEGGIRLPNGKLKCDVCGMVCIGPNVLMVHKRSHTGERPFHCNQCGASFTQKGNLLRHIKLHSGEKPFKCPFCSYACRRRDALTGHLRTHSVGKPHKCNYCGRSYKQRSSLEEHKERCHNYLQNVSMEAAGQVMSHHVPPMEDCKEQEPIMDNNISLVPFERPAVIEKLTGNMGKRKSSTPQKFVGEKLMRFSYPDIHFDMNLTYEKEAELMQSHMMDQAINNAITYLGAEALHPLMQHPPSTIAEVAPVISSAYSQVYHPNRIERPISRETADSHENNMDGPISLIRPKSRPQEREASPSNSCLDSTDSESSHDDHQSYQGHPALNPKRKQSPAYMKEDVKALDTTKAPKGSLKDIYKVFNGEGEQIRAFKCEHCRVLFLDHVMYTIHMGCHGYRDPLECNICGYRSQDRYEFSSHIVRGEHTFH
Sequence of IKZF2 (Homo sapiens, UniProt Q96SW2+Q9UKS7) (Q96SW2 whole entry, the tested form may be a part): as the sequence (Q96SW2 whole entry, the tested form may be a part) above
Sequence of IKZF2 (Homo sapiens, UniProt Q96SW2+Q9UKS7) (Q16531 whole entry partner, the tested form may be a part): as the sequence (Q16531 whole entry partner, the tested form may be a part) above
From the text: FIG. 1. is a graph showing the selectivity of Compound I-57 for the degradation of IKZF2 over the other IKAROS family members, IKZF1, IKZF4, and GSPT1 at various concentrations in HEK293T cells overexpressing prolabel-tagged target proteins.

[15] = 0.1 mg/kg/day, Day 5, Group 2 (only I-57), 0.1 mg/kg/day oral
[16] = 0.1 mg/kg/day, Day 5, Group 4 (I-57 + KLH + adjuvant), 0.1 mg/kg/day oral
[17] = 0.1 mg/kg/day, Day 29, Group 2 (only I-57), 0.1 mg/kg/day oral
[18] = 0.1 mg/kg/day, Day 29, Group 4 (I-57 + KLH + adjuvant), 0.1 mg/kg/day oral
[19] = 3 mg/kg/day, Day 5, Group 5 (I-57 + KLH + adjuvant), 3 mg/kg/day oral
[20] = 3 mg/kg/day, Day 29, Group 5 (I-57 + KLH + adjuvant), 3 mg/kg/day oral
[21] = Day 5, Group 2 (only I-57), 0.1 mg/kg/day oral
[22] = Day 5, Group 4 (I-57 + KLH + adjuvant), 0.1 mg/kg/day oral
[23] = Day 5, Group 5 (I-57 + KLH + adjuvant), 3 mg/kg/day oral
[24] = Day 29, Group 2 (only I-57), 0.1 mg/kg/day oral
[25] = Day 29, Group 4 (I-57 + KLH + adjuvant), 0.1 mg/kg/day oral
[26] = Day 29, Group 5 (I-57 + KLH + adjuvant), 3 mg/kg/day oral

Structure (SMILES): O=C1CCC(N2Cc3cc(C4CCN(Cc5ccccc5)CC4)ccc3C2=O)C(=O)N1 (stereo not shown) [Compound I-57, 3-(5-(1-benzylpiperidin-4-yl)-1-oxoisoindolin-2-yl)piperidine-2,6-dione]
- IFNγ production by IKZF2+ cells [1]: concomitant increase in IFNγ production
- degradation of IKZF4 [2]: less potency than IKZF2
- IKZF2 degradation [3]: degraded IKZF2 in a dose-dependent manner
- interferon gamma production by IKZF2 positive cells [3]: concomitant increase
- duration for which maximum decrease of IKZF2 positive cells was maintained ([4]; single oral dose): 12 to 24 h
- recovery of IKZF2 positive cells ([4]; single oral dose 1 mg/kg): total recovery was not achieved by day 7 post-dose
- time at which decreased IKZF2 positive cells were detectable ([4]; single oral dose, 1 mg/kg and 0.1 mg/kg groups, flow cytometry): 4 h
- time to maximum decrease of IKZF2 positive cells ([4]; single oral dose, post-dose): 12 to 24 h
- Cmax [5, 15]: 7.1 ng/mL
- AUC(0-t) [5, 15]: 56.8 ng·h/mL
- Cmax [5, 16]: 11 ng/mL
- AUC(0-t) [5, 16]: 63.5 ng·h/mL
- Cmax [5, 17]: 13.1 ng/mL
- AUC(0-t) [5, 17]: 78.1 ng·h/mL
- Cmax [5, 18]: 18 ng/mL
- AUC(0-t) [5, 18]: 96.4 ng·h/mL
- Cmax [5, 19]: 523 ng/mL
- AUC(0-t) [5, 19]: 2840 ng·h/mL
- Cmax [5, 20]: 504 ng/mL
- AUC(0-t) [5, 20]: 3460 ng·h/mL
- AUC0-24/D [5, 21]: 567 (ng · h/mL)/(mg/kg)
- Cmax/D [5, 21]: 71.0 (ng/mL)/(mg/kg)
- AUC0-24/D [5, 22]: 634 (ng · h/mL)/(mg/kg)
- Cmax/D [5, 22]: 110 (ng/mL)/(mg/kg)
- AUC0-24/D [5, 23]: 946 (ng · h/mL)/(mg/kg)
- Cmax/D [5, 23]: 175 (ng/mL)/(mg/kg)
- AUC0-24/D [5, 24]: 782 (ng · h/mL)/(mg/kg)
- Cmax/D [5, 24]: 131 (ng/mL)/(mg/kg)
- AUC0-24/D [5, 25]: 965 (ng · h/mL)/(mg/kg)
- Cmax/D [5, 25]: 180 (ng/mL)/(mg/kg)
- AUC0-24/D [5, 26]: 1150 (ng · h/mL)/(mg/kg)
- Cmax/D [5, 26]: 169 (ng/mL)/(mg/kg)
- IKZF2 degradation ([6]; 0.1 mg/kg dose level, repeated daily): profound
- time after initiation of treatment to steady-state level of IKZF2 ([6]; repeated daily oral doses): approximately 72 h
- time after the first dose at which IKZF2 degradation was detected ([6]; repeated daily oral doses of 0.1 and 3 mg/kg): 24 h
- binding to plasma protein [7]: 52%
- binding to plasma protein [8]: 52%
- blood plasma ratio [9]: 1.1 to 1.3
- P-gp substrate status [10]: P-gp substrate
- inhibition of CYP1A2 [11]: very little and no inhibition
- inhibition of CYP2C8 [12]: very little and no inhibition
- CNS or respiratory signs [13]: no CNS or respiratory signs
- degradation of IKZF2 and selectivity over IKZF1, IKZF4 and GSPT1 [14]: potent and specific degrader of IKZF2
